Test results reported in patent US11648254B2 (Kumquat Biosciences Inc., priority 2021, dated 2023).
pIC50: −log10 of the molar value. Where two headings read alike, the source gives them in different places.

Columns and labels:
SOS1 = SOS1 (Homo sapiens (Human), UniProt Q07889); assay: Ras-SOS interaction assay (HTRF); format: biochemical
[1] = system: MIA PaCa-2 cells (K-Ras G12C); assay: Ras-SOS cellular growth inhibition assay (CellTiter-Glo, 3D); format: cell-based
In short: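 Growth read by CellTiter-Glo luminescence about 5 days after dosing with 3-fold dilutions (9 points), added one day post-seeding. Cells: MIA PaCa-2, 3D culture on ultra-low-attachment surface, medium DMEM/Ham's F12 plus 10% FCS and 2.5% horse serum; IC50 by four-parameter fit.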

[2] = system: NCI-H1975 cells (EGFR T790M L858R); assay: EGFR-SOS cellular inhibition assay (CellTiter-Glo, 3D); format: cell-based
[3] = In vitro plasma protein binding (PPB); format: in vitro ADME; conditions: percentage of free/unbound compound
[4] = K-RasG13D utilized, read-out: IC50 inhibition of SOS
[5] = K-RasG13D, read-out: IC50 value against SOS1
[6] = Homo sapiens, MIA PaCa-2, 120 h, MIA PaCa-2, 3D proliferation, about 5 days, read-out: Bio-Cell-Prolif-3D (MiaPaca2 IC50)
[7] = Homo sapiens, MIA PaCa-2, MIA PaCa-2, read-out: IC50 in inhibiting MIA PaCa-2 cell growth
[8] = Homo sapiens, 120 h, NCI-H1975, 3D proliferation, about 5 days, read-out: Bio-Cell-Prolif-3D (H1975 IC50)
[9] = Homo sapiens, NCI-H1975, EGFR T790M L858R, read-out: IC50 in inhibiting growth of NCI-H1975 cell line
[10] = MIA PaCa-2, 3D proliferation, about 5 days, read-out: Bio-Cell-Prolif-3D (MiaPaca2 IC50)
[11] = NCI-H1975, 3D proliferation, about 5 days, read-out: Bio-Cell-Prolif-3D (H1975 IC50)
[12] = NCI-H1975, EGFR T790M L858R, read-out: IC50 in inhibiting growth of NCI-H1975 cell line

pIC50 (SOS1; [4])	pIC50 (SOS1; [5])	pIC50 [1, 6]	pIC50 [1, 7]	pIC50 [2, 8]	pIC50 [2, 9]	DMPK-invitro-PPB (Mouse Unbound) [%] [3]	pIC50 [1, 10]	pIC50 [2, 11]	pIC50 [2, 12]	Molecule
> 7.00	> 7.30	≥ 6.00	> 6.30	≥ 6.00	> 6.30	2.56%				COc1nc2nc(C)nc(N[C@H](C)c3cccc(C(F)F)c3F)c2cc1C1CCS(=O)(=O)CC1 [Compound 102, (R)-4-(4-((1-(3-(difluoromethyl)-2-fluorophenyl)ethyl)amino)-7-methoxy-2-methylpyrido[2,3-d]pyrimidin-6-yl)tetrahydro-2H-thiopyran 1,1-dioxide]
> 7.00					> 6.30	5.15%				COc1nc2nc(C)nc(N[C@H](C)c3cccc(C(F)F)c3F)c2cc1N1CCN(C)CC1 [Compound 103, (R)—N-(1-(3-(difluoromethyl)-2-fluorophenyl)ethyl)-7-methoxy-2-methyl-6-(4-methylpiperazin-1-yl)pyrido[2,3-d]pyrimidin-4-amine]
> 7.00	> 7.30	≥ 6.00	> 6.30	≥ 6.00	> 6.30	3.51%				COc1nc2nc(C)nc(N[C@H](C)c3cccc(C(F)F)c3F)c2cc1N1CCN(C(C)C)CC1 [Compound 109, (R)-N-(1-(3-(difluoromethyl)-2-fluorophenyl)ethyl)-6-(4-isopropylpiperazin-1-yl)-7-methoxy-2-methylpyrido[2,3-d] pyrimidin-4-amine]
	> 7.30	≥ 6.00	> 6.30	≥ 6.00	> 6.30	0.31%				COc1nc2nc(C)nc(N[C@H](C)c3cccc(C(F)(F)F)c3C)c2cc1C1CCS(=O)(=O)CC1 [Compound 118, (R)-4-(7-methoxy-2-methyl-4-((1-(2-methyl-3-(trifluoromethyl)phenyl)ethyl)amino)pyrido[2,3-d]pyrimidin-6-yl)tetrahydro-2H-thiopyran 1,1-dioxide]
> 7.00	> 7.30	≥ 6.00	> 6.30	≥ 6.00	> 6.30	0.73%				COc1nc2nc(C)nc(N[C@H](C)c3cccc(C(F)(F)F)c3F)c2cc1C1CCS(=O)(=O)CC1 [Compound 120, (R)-4-(4-((1-(2-fluoro-3-(trifluoromethyl)phenyl)ethyl)amino)-7-methoxy-2-methylpyrido[2,3-d]pyrimidin-6-yl)tetrahydro-2H-thiopyran 1,1-dioxide]
> 7.00	> 7.30	≥ 6.00	> 6.30	≥ 6.00	> 6.30	4.01%				COc1nc2nc(C)nc(N[C@H](C)c3cccc(C(F)F)c3F)c2cc1N1CCS(=O)(=O)CC1 [Compound 131, (R)-4-(4-((1-(3-(difluoromethyl)-2-fluorophenyl)ethyl)amino)-7-methoxy-2-methylpyrido[2,3-d]pyrimidin-6-yl)thiomorpholine 1,1-dioxide]
> 7.00	> 7.30		> 6.30			3.58%	≥ 6.00	≥ 6.00	> 6.30	COc1nc2ncnc(N[C@H](C)c3cccc(C(F)F)c3F)c2cc1C1CCS(=O)(=O)CC1 [Compound 146, (R)-4-(4-((1-(3-(difluoromethyl)-2-fluorophenyl)ethyl)amino)-7-methoxypyrido[2,3-d]pyrimidin-6-yl)tetrahydro-2H-thiopyran 1,1-dioxide]
	> 7.30	≥ 6.00	> 6.30	≥ 6.00	> 6.30	2.65%				COc1nc2nc(C)nc(N[C@H](C)c3cccc(C(C)(F)F)c3F)c2cc1C1CCS(=O)(=O)CC1 [Compound 150, (R)-4-(4-((1-(3-(1,1-difluoroethyl)-2-fluorophenyl)ethyl)amino)-7-methoxy-2-methylpyrido[2,3-d]pyrimidin-6-yl)tetrahydro-2H-thiopyran 1,1-dioxide]
> 7.00	> 7.30	≥ 6.00	> 6.30	≥ 6.00	> 6.30	14.53%				COc1nc2ncnc(N[C@H](C)c3cccc(C(F)F)c3F)c2cc1N1CCN(C)CC1 [Compound 156, (R)-N-(1-(3-(difluoromethyl)-2-fluorophenyl)ethyl)-7-methoxy-6-(4-methylpiperazin-1-yl)pyrido[2,3-d] pyrimidin-4-amine]
> 7.00	> 7.30	≥ 6.00	> 6.30	≥ 6.00	> 6.30	3.43%				COc1nc2ncnc(N[C@H](C)c3cccc(C(F)(F)F)c3F)c2cc1N1CCN(C(C)C)CC1 [Compound 159, (R)-N-(1-(2-fluoro-3-(trifluoromethyl)phenyl)ethyl)-6-(4-isopropylpiperazin-1-yl)-7-methoxypyrido[2,3-d] pyrimidin-4-amine]
> 7.00	> 7.30	≥ 6.00		≥ 6.00	> 6.30	1.05%				COc1nc2ncnc(N[C@H](C)c3cccc(C(F)(F)F)c3C)c2cc1N1CCN(C2CCOCC2)CC1 [Compound 160, (R)-7-methoxy-N-(1-(2-methyl-3-(trifluoromethyl)phenyl)ethyl)-6-(4-(tetrahydro-2H-pyran-4-yl)piperazin-1-yl)pyrido[2,3-d]pyrimidin-4-amine]
> 7.00	> 7.30	≥ 6.00		≥ 6.00	> 6.30	2.19%				COc1nc2ncnc(N[C@H](C)c3cccc(C(F)(F)F)c3F)c2cc1C1CCN(C(C)C)CC1 [Compound 162, (R)-N-(1-(2-fluoro-3-(trifluoromethyl)phenyl)ethyl)-6-(1-isopropylpiperidin-4-yl)-7-methoxypyrido[2,3-d] pyrimidin-4-amine]
> 7.00	> 7.30					0.29%				COc1nc2nc(C)nc(N[C@H](C)c3cccc(C(F)(F)F)c3F)c2cc1C1CCN(C2CCOCC2)CC1 [Compound 344, (R)-N-(1-(2-fluoro-3-(trifluoromethyl)phenyl)ethyl)-7-methoxy-2-methyl-6-(1-(tetrahydro-2H-pyran-4-yl)piperidin-4-yl)pyrido[2,3-d]pyrimidin-4-amine]
> 7.00	> 7.30					0.065%				COc1nc2nc(C)nc(N[C@H](C)c3cccc(C(F)(F)F)c3C)c2cc1C1CCN(C2CCOCC2)CC1 [Compound 358, (R)-7-methoxy-2-methyl-N-(1-(2-methyl-3-(trifluoromethyl)phenyl)ethyl)-6-(1-(tetrahydro-2H-pyran-4-yl)piperidin-4-yl)pyrido [2,3-d]pyrimidin-4-amine]
> 7.00	> 7.30	≥ 6.00	> 6.30	≥ 6.00	> 6.30					COc1nc2ncnc(N[C@H](C)c3cccc(C(F)(F)C4CCN(C(C)C)CC4)c3)c2cc1C1CCN(C(C)C)CC1 [Compound 419, (R)—N-(1-(3-(difluoro(1-isopropylpiperidin-4-yl)methyl)phenyl)ethyl)-6-(1-isopropylpiperidin-4-yl)-7-methoxypyrido[2,3-d]pyrimidin-4-amine]
> 7.00	> 7.30	≥ 6.00	> 6.30	≥ 6.00	> 6.30					COc1nc2nc(C)nc(N[C@H](C)c3cccc(C(F)(F)C4CCN(C(C)C)CC4)c3)c2cc1C1CCN(C(C)C)CC1 [Compound 420, (R)-N-(1-(3-(difluoro(1-isopropylpiperidin-4-yl)methyl)phenyl)ethyl)-6-(1-isopropylpiperidin-4-yl)-7-methoxy-2-methylpyrido[2,3-d] pyrimidin-4-amine]
> 7.00	> 7.30	≥ 6.00	> 6.30	≥ 6.00	> 6.30					COc1nc2ncnc(N[C@H](C)c3cccc(C(F)(F)C4CCN(C(C)C)CC4)c3)c2cc1N1CCN(C(C)C)CC1 [Compound 421, (R)-N-(1-(3-(difluoro(1-isopropylpiperidin-4-yl)methyl)phenyl)ethyl)-6-(4-isopropylpiperazin-1-yl)-7-methoxypyrido[2,3-d] pyrimidin-4-amine]
> 7.00	> 7.30						≥ 6.00	≥ 6.00	> 6.30	((R)-1,4-dioxan-2-yl)(4-(4-(((R)-1-(2-fluoro-3-(trifluoromethyl)-phenyl)ethyl)amino)-7-methoxy-2-methylpyrido[2,3-d]pyrimidin-6-yl)piperazin-1-yl)methanone [Compound 303]
